Source: patent US20110275673A1, “INHIBITORS OF SPHINGOSINE KINASE 1” (priority 2008, published 2011)
Counter-ions that a name gives are not always drawn.

Biological target: T1, SPHK-1 (Homo sapiens, UniProt Q9NYA1)
T1 construct: purchased BPS Bioscience
Assay: Reporter Assay: sphingosine kinase conversion of fluorescein-labeled sphingosine, read on Lab Chip 3000
Assay type: biochemical
Conditions: 2 μM Fl-sphingosine, 25 μM ATP, 300 ng/ml SK1, 1 hour at room temperature; from percent conversion of substrate to product; read-out: SPHK-1 IC50 (n =)
Description: Sphingosine kinase is a 49 kDa enzyme that catalyzes the formation of sphingosine-1-phosphate (S-1-P) from sphingosine.
Fluorescein labeled sphingosine was obtained from Echelon Biosciences (S-100F). Buffer reagents (1 M Hepes, 10 triton x-100, 100% glycerol, dithiothreitol 1 M MgCl2, ATP, 500 mM EDTA and DMSO) were purchased from Sigma. Coating reagent (CR-3), was obtained from Caliper Life Sciences.
0.05% Triton X-100, 2.5% glycerol, 0.1% CR-3, and 0,6% DMSO. Termination butler included 100 mM Hepes (pH 7.5), 40 mM EDTA, 0.05% Triton X-100, 2.5% glycerol, 0.3% CR-3, and 0.6% DMSO.
All assay components were made in reaction buffer. […] The assaylvas allowed to incubate at room temperature sealed and protected from light for 1 hour.
After 1 hour, 10 μl of termination buffer was added to terminate, the reaction, and the plate was read on a Lab Chip 3000. The plate was read for one cycle. The Lab Chip separated substrate and product based on charge.
Results were calculated based on percent conversion of substrate to product using the following formula: […]
Percent inhibition and IC50's for compounds of the invention were determined using the percent conversion values obtained horn the Lab Chip.

T1 sequence (Q9NYA1 whole entry): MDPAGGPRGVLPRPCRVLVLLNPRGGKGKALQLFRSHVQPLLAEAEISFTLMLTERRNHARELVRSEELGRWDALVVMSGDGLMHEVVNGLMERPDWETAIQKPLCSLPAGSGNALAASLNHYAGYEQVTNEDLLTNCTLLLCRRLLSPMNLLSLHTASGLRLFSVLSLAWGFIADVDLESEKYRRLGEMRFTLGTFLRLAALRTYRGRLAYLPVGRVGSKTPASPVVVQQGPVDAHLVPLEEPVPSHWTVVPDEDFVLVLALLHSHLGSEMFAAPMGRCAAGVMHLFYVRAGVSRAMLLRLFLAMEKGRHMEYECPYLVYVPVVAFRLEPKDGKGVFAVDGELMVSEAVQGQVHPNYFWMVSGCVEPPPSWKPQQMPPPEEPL

| Structure (SMILES) | IC50 |
| --- | --- |
| CCCCCCCc1ccc(CNC(=O)[C@H]2NCC[C@@H]2O)cc1 [Example 37, (2S,3S)-N-(4-heptylbenzyl)-3-hydroxy-pyrrolidine-2-carboxamide] | 470 nM |
| CCCCCCCCCc1ccc(NC(=O)[C@@H](N)[C@@H](C)O)cc1 [Example 14, (2S,3R)-2-Amino-3-hydroxy-N-(4-nonylphenyl) butanamide] | 180 nM |
| C[C@@H](O)[C@H](N)C(=O)Nc1ccc(CCCCCCCOc2ccc(F)cc2)cc1 [Example 17, (2S,3R)-2-Amino-N-(4-(7-(4-fluorophenoxy)heptyl)phenyl)-3-hydroxy-butanamide] | 3600 nM |
| CCCCCCCCc1ccc(NC(=O)[C@H]([C@H](C)O)N(Cc2ccccc2)Cc2ccccc2)cc1 [Example 49, (2S,3S)-2-(dibenzyl-amino)-3-hydroxy-N-(4-octylphenyl) butanamide] | > 1000 nM |
| CCCCCCCCCCc1ccc(NC(=O)[C@@H](N)[C@@H](C)O)cc1 [Example 6, (2S,3R)-2-Amino-N-(4-decylphenyl)-3-hydroxy-butanamide] | 46 nM |
| CCCCCCOCc1ccc(NC(=O)[C@@H](N)[C@@H](C)O)cc1 [Example 15, (2S,3R)-2-Amino-N-(4-(hexyloxymethyl)phenyl)-3-hydroxy-butanamide] | 8200 nM |
| CCCCCCCCCCc1ccc(NC(=O)[C@H]2NCCC[C@H]2O)cc1 (relative stereo) [Example 45, cis-N-(4-decylphenyl)-3-hydroxy-piperidine-2-carboxamide] | > 10000 nM |
| CCCCCCCCc1ccc(NC(=O)[C@H]2NC[C@H](O)[C@@H]2O)cc1 [Example 20, (2S,3R,4S)-3,4-Dihydroxy-N-(4-octylphenyl) pyrrolidine-2-carboxamide] | 8300 nM |
| CCCCCCCSCc1ccc(CNC(=O)[C@H]2NCC[C@@H]2O)cc1 [Example 43, (2S,3S)-N-(4-(heptylthio-methyl)benzyl)-3-hydroxy-pyrrolidine-2-carboxamide] | 180 nM |
| O=C(Nc1ccc(CCCC2CCCCC2)cc1)[C@H]1NCC[C@@H]1O [Example 50, (2S,3S)-N-(4-(3-cyclohexyl-propyl)phenyl)-3-hydroxy-pyrrolidine-2-carboxamide] | 950 nM |
| CCCCCCCC(O)CCCc1ccc(NC(=O)[C@H]2NCC[C@@H]2O)cc1 (stereo partly drawn) [Example 42, (2S,3S)-3-hydroxy-N-(4-(4-hydroxy-undecyl)phenyl) pyrrolidine-2-carboxamide] | 120 nM |
| CCCCCCCCc1ccc(NC(=O)[C@@H](NCC2CCCCC2)[C@H](C)O)cc1 [Example 48, (2S,3S)-2-(cyclohexyl-methyl-amino)-3-hydroxy-N-(4-octylphenyl) butanamide] | > 1000 nM |
| O=C(Nc1ccc(CCCCCOc2ccc(F)cc2)cc1)[C@H]1NCC[C@@H]1O [Example 24, (2S,3S)-N-(4-(5-(4-Fluorophenoxy)pentyl)phenyl)-3-hydroxy-pyrrolidine-2-carboxamide] | 190 nM |
| CCCCCCS(=O)(=O)Cc1ccc(NC(=O)[C@H]2NCC[C@@H]2O)cc1 [Example 46, (2S,3S)-N-(4-(hexylsulfonyl-methyl)phenyl)-3-hydroxy-pyrrolidine-2-carboxamide] | > 10000 nM |
| CCCCCCCCCCCCc1ccc(NC(=O)[C@@H](N)[C@@H](C)O)cc1 [Example 8, (2S,3R)-2-Amino-N-(4-dodecylphenyl)-3-hydroxy-butanamide] | 190 nM |
| CCCCCCCOc1ccc(NC(=O)[C@@H](N)[C@@H](C)O)cc1 [Example 12, (2S,3R)-2-Amino-N-(4-(heptyloxy)phenyl)-3-hydroxy-butanamide] | 1500 nM |
| CCCCCCCCc1ccc(NC[C@H]2NCC[C@@H]2O)cc1 [Example 9, (2R,3S)-2-((4-Octylphenyl-amino)methyl) pyrrolidin-3-ol] | 740 nM |
| CCCCCCCCc1ccc([C@H](C)NC(=O)[C@H]2NCC[C@@H]2O)cc1 [Example 27, (2S,3S)-3-Hydroxy-N-((S)-1-(4-octylphenyl)ethyl) pyrrolidine-2-carboxamide] | 190 nM |
| CCCCCCSCCCCc1ccc(NC(=O)[C@H]2NCC[C@@H]2O)cc1 [Example 41, (2S,3S)-N-(4-(4-(hexylthio)butyl)phenyl)-3-hydroxy-pyrrolidine-2-carboxamide] | 2 nM |
| CCCCCCCCc1ccc(O)c(NC(=O)[C@H]2NCC[C@@H]2O)c1 [Example 58, hydrochloride] | 3600 nM |

Continued, values first:

| IC50 | Structure (SMILES) |
| --- | --- |
| 110 nM | O=C(NCc1ccc2oc(CC3CCCCC3)cc2c1)[C@H]1NCC[C@@H]1O [Example 116, (2S,3S)—N-((2-(Cyclohexylmethyl)benzofuran-5-yl)methyl)-3-hydroxypyrrolidine-2-carboxamide] |
| 290 nM | O=C(NCc1ccc(-n2cc(CCC3CCCCC3)nn2)cc1)[C@H]1NCC[C@@H]1O [Example 67, (2S,3S)-(4-(4-(2-Cyclohexylethyl)-1H-1,2,3-triazol-1-yl)benzyl)-3-hydroxypyrrolidine-2-carboxamide] |
| 790 nM | O=C(NCc1cc(F)c2oc(C3CCCCC3)cc2c1)[C@H]1NCC[C@@H]1O [Example 122, (2S,3S)—N-((2-Cyclohexyl-7-fluorobenzofuran-5-yl)methyl)-3-hydroxypyrrolidine-2-carboxamide] |
| 6400 nM | O=C(NCc1ccc(-c2noc(C3CCC(F)(F)CC3)n2)cc1)[C@H]1NCC[C@@H]1O [Example 92, (2S,3S)—N-(4-(5-(4,4-Difluorocyclohexyl)-1,2,4-oxadiazol-3-yl)benzyl)-3-hydroxypyrrolidine-2-carboxamide] |
| 2100 nM | Cn1nc(-c2ccc(CNC(=O)[C@H]3NCC[C@@H]3O)cc2)nc1C1CCCCC1 [Example 63, (2S,3S)—N-(4-(5-Cyclohexyl-1-methyl-1H-1,2,4-triazol-3-yl)benzyl)-3-hydroxypyrrolidine-2-carboxamide] |
| 31 nM | CCCCCCCCc1cc2cc(CNC(=O)[C@H]3NCC[C@@H]3O)ccc2o1 [Example 107, (2S,3S)-3-Hydroxy-N-((2-octylbenzofuran-5-yl)methyl)pyrrolidine-2-carboxamide] |
| 9400 nM | CCCCCCCCc1cc2cc(CNC(=O)[C@H]3NCC[C@@H]3O)ccc2[nH]1 [Example 108, (2S,3S)-3-Hydroxy-N-((2-octyl-1H-indol-5-yl)methyl)pyrrolidine-2-carboxamide] |
| 900 nM | CCCCCCCc1ccc(-c2ccc(NC(=O)[C@@H](N)[C@@H](C)O)cc2)nc1 [Example 101, (2S,3R)-2-amino-N-(4-(5-heptylpyridin-2-yl)phenyl)-3-hydroxybutanamide] |
| 530 nM | CCCCCCc1cc2cc(CNC(=O)[C@H]3NCC[C@@H]3O)ccc2o1 [Example 114, (2S,3S)—N-((2-Hexylbenzofuran-5-yl)methyl)-3-hydroxypyrrolidine-2-carboxamide] |
| 2300 nM | O=C(NCc1cc(F)c2oc(CC3CCCC3)cc2c1)[C@H]1NCC[C@@H]1O [Example 120, (2S,3S)—N-((2-(Cyclopentylmethyl)-7-fluorobenzofuran-5-yl)methyl)-3-hydroxypyrrolidine-2-carboxamide] |
| 9700 nM | CCCCCCCCCCc1ccc(NC(=O)[C@H]2C[C@H](O)CCN2)cc1 [Example 123, (2R,4R)—N-(4-decylphenyl)-4-hydroxypiperidine-2-carboxamide] |
| 300 nM | CCCCCCCCc1cc2cc(CNC(=O)[C@H]3NCC[C@@H]3O)ccc2n1C [Example 109, (2S,3S)-3-Hydroxy-N-((1-methyl-2-octyl-1H-indol-5-yl)methyl)pyrrolidine-2-carboxamide] |
| 160 nM | CCCCCCCc1cc2cc(CNC(=O)[C@H]3NCC[C@@H]3O)ccc2o1 [Example 113, (2S,3S)—N-((2-Heptylbenzofuran-5-yl)methyl)-3-hydroxypyrrolidine-2-carboxamide] |
| 1600 nM | O=C(NCc1ccc(-n2cc(CCc3ccccc3)nn2)cc1)[C@H]1NCC[C@@H]1O [Example 65, (2S,3S)-3-Hydroxy-N-(4-(4-phenethyl-1H-1,2,3-triazol-1-yl)benzyl)pyrrolidine-2-carboxamide] |
| 430 nM | O=C(NCc1ccc2oc(CCC3CCCCC3)cc2c1)[C@H]1NCC[C@@H]1O [Example 117, (2S,3S)—N-((2-(2-Cyclohexylethyl)benzofuran-5-yl)-methyl)-3-hydroxypyrrolidine-2-carboxamide] |
| 1600 nM | CCCCCCCc1ccc(-c2ccc(NC(=O)[C@H]3NCC[C@@H]3O)cc2)nc1 [Example 104, (2S,3S)—N-(4-(5-heptylpyridin-2-yl)phenyl)-3-hydroxypyrrolidine-2-carboxamide] |
| 140 nM | CC[C@H](NC(=O)[C@H]1NCC[C@@H]1O)c1ccc(-n2cc(CCc3ccccc3)nn2)cc1 [Example 66, (2S,3S)-3-Hydroxy-N—((S)-1-(4-(4-phenethyl-1H-1,2,3-triazol-1-yl)phenyl)propyl)pyrrolidine-2-carboxamide] |
| 490 nM | CCCCCCCCc1cc2ccc(CNC(=O)[C@H]3NCC[C@@H]3O)cc2o1 [Example 112, (2S,3S)-3-Hydroxy-N-((2-octylbenzofuran-6-yl)methyl)pyrrolidine-2-carboxamide] |
| 1800 nM | CCCc1ccc(-c2nc(-c3ccc(CNC(=O)[C@H]4NCC[C@@H]4O)cc3)no2)cc1 [Example 81, (2S,3S)-3-Hydroxy-N-(4-(5-(4-propylphenyl)-1,2,4-oxadiazol-3-yl)benzyl)pyrrolidine-2-carboxamide] |
